Patent publication US7553966B2, “Glucocorticoid mimetics, methods of making them, pharmaceutical compositions, and uses thereof” (Boehringer Ingelheim Pharmaceuticals, Inc., priority 2002, dated 2009)

Legend:
[1] = target: T1, human glucocorticoid receptor (GR) complex (Homo sapiens, UniProt P04150); assay: Glucocorticoid Receptor Competitive Binding Assay (fluorescence polarization, TAMRA-labeled dexamethasone probe); settings: qualitative statement; competition with TAMRA-labeled dexamethasone
T1 construct: made in house; host or cells: insect expression system (baculovirus lysate)
T1 sequence (P04150 1-777): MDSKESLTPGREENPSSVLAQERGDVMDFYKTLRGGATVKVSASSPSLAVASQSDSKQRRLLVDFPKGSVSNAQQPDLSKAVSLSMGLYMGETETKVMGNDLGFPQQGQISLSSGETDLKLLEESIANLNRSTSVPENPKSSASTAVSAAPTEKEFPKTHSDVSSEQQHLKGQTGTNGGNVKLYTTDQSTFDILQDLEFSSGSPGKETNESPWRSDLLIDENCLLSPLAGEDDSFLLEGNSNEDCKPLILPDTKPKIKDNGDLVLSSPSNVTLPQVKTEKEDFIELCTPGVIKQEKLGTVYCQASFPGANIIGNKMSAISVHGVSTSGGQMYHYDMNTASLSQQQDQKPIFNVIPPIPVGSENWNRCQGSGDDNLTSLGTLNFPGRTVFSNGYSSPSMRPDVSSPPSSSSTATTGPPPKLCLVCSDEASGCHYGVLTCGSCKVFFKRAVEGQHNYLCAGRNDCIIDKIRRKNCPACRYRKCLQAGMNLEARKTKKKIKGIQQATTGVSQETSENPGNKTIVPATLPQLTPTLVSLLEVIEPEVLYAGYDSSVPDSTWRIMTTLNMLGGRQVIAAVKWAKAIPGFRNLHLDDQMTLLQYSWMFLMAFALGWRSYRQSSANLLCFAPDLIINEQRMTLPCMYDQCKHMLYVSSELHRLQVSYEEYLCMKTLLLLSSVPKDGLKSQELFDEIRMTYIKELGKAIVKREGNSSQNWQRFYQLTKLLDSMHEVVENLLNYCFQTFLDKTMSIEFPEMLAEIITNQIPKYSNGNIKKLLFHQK
Procedure, shortened: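 Competition with TAMRA-dexamethasone for a human GR complex expressed in insect cells, read by fluorescence polarization. Buffer was 10 mM TES, 50 mM KCl, 20 mM Na2MoO4, 1.5 mM EDTA, 0.04% CHAPS, 10% glycerol, 1 mM DTT, pH 7.4.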

[2] = system: glucocorticoid receptor; assay: Glucocorticoid Receptor Cell Assays (agonist activity in one or more of the above assays); format: cell-based; settings: qualitative statement; assay not specified
Description: B. Glucocorticoid Receptor Cell Assays
1. Induction of Aromatase in Fibroblasts (Cell Assay for Transactivation)
Dexamethasone, a synthetic ligand to the glucocorticoid receptor (GR), induces expression of aromatase in human foreskin fibroblast cells. The activity of aromatase is measured by the conversion of testosterone to estradiol in culture media.
On the day of the experiment, the media in the wells is replaced with fresh media. Cells are treated with test compounds to final concentrations of 10^−5 M to 10^−8 M, and testosterone to a final concentration of 300 ng/mL. Each well has a total volume of 100 μL. Samples are made in duplicates. Control wells include: (a) wells that receive testosterone only, and (b) wells that receive testosterone plus 2 μM of dexamethasone to provide maximum induction of aromatase. Plates are incubated at 37° C. overnight (15 to 18 hours), and supernatants are harvested at the end of incubation. […] The amount of estradiol is inversely proportional to the ELISA signals in each well. The extent of aromatase induction by test compounds is expressed as a relative percentage to dexamethasone. EC50 values of test compounds are derived by non-linear curve fitting.
2. Inhibition of IL-6 Production in Fibroblasts (Cell Assay for Transrepression)
Human foreskin fibroblast cells produce IL-6 in response to stimulation by pro-inflammatory cytokine IL-1.
On the next day, media in the wells is replaced with fresh media. Cells are treated with IL-1 (rhIL-1α, R&D Systems Cat. No. 200-LA) to a final concentration of 1 ng/mL, and with test compounds to final concentrations of 10^−5 M to 10^−8 M, in a total volume of 200 μL per well. Samples are done in duplicates. […] Positive control wells receive IL-1 only and represent maximum (or 100%) amount of IL-6 production. Plates are incubated at 37° C. overnight (15 to 18 hours), and supernatants are harvested at the end of incubation. IL-6 levels in the supernatants are determined by the ELISA kits for IL-6 (MedSystems Diagnostics GmbH, Vienna, Austria, Cat. No. BMS213TEN) according to manufacture's instructions. The extent of inhibition of IL-6 by test compounds is expressed in percentage relative to positive controls. IC50 values of test compounds are derived by non-linear curve fitting.
Evaluation of agonist or antagonist activity of compounds binding to the glucocorticoid receptor may be determined by any of the assays.
3. Modulation of Tyrosine Aminotransferase (TAT) Induction in Rat Hepatoma Cells
Testing of compounds for agonist or antagonist activity in induction of tyrosine aminotransferase (TAT) in rat hepatoma cells.
H4-II-E-C3 cells were incubated overnight in 96 well plates (20,000 cells/100 μL/well) in MEM medium containing 10% heat inactivated FBS and 1% nonessential amino acids. On the next day, cells were stimulated with the indicated concentrations of dexamethasone or test compound (dissolved in DMSO, final DMSO concentration 0.2%) for 18 hours. Control cells were treated with 0.2% DMSO. After 18 hours, the cells were lysed in a buffer containing 0.1% Triton X-100 and the TAT activity was measured in a photometric assay using tyrosine and alpha-ketoglutarate as substrates.
For measuring antagonist activity, the hepatoma cells were pre-stimulated by addition of dexamethasone (concentration ranges from 3×10^−9 M to 3×10^−8 M) shortly before the test compound was applied to the cells.
4. Modulation of MMTV-Luc Induction in HeLa Cells
Testing of compounds for agonist or antagonist activity in stimulation of MMTV-(mouse mammary tumor virus) promoter in HeLa cells.
Cells were cultured overnight in DMEM medium without phenol red, supplemented with 3% CCS (charcoal treated calf serum) and then transferred to 96 well plates (15,000 cells/100 μL/well).

| activity in the GR binding assay [1] | SMILES | activity as agonists of the glucocorticoid receptor function in one or more of the above assays [2] |
| --- | --- | --- |
| potent activity | CC(C)(CC(O)(Cc1cc2ccncc2[nH]1)C(F)(F)F)c1ccc(F)cc1O (stereo not shown) [5-Fluoro-2-[4,4,4-trifluoro-3-hydroxy-1,1-dimethyl-3-(1H-pyrrolo[2,3-c]pyridin-2-ylmethyl)butyl]phenol] | potent agonists |
| potent activity | CC(C)(CC(O)(Cc1cc2cnccc2[nH]1)C(F)(F)F)c1cc(F)ccc1O (stereo not shown) [4-Fluoro-2-[4,4,4-trifluoro-3-hydroxy-1,1-dimethyl-3-(1H-pyrrolo[3,2-c]pyridin-2-ylmethyl)butyl]phenol] | potent agonists |
| potent activity | Cc1cc(C#N)cc2[nH]c(CC(O)(CC(C)(C)c3ccc(F)cc3)C(F)(F)F)cc12 (stereo not shown) [2-[4-(4-Fluorophenyl)-2-hydroxy-4-methyl-2-trifluoromethylpentyl]-4-methyl-1H-indole-6-carbonitrile] | potent agonists |
| potent activity | Cc1cc(C)c2[nH]c(CC(O)(CC(C)(C)c3cc(F)ccc3O)C(F)(F)F)nc2c1 (stereo not shown) [2-[3-(5,7-Dimethyl-1H-benzoimidazol-2-ylmethyl)-4,4,4-trifluoro-3-hydroxy-1,1-dimethylbutyl]-4-fluorophenol] | potent agonists |
| potent activity | COc1ccc(F)cc1C(C)(C)CC(O)(Cc1cc2cc(C#N)ccc2[nH]1)C(F)(F)F (stereo not shown) [2-[4-(5-Fluoro-2-methoxyphenyl)-2-hydroxy-4-methyl-2-trifluoromethylpentyl]-1H-indole-5-carbonitrile] | potent agonists |
| potent activity | COc1ccc(F)cc1C(C)(C)CC(O)(Cc1cc2c(C)cc(C#N)cc2[nH]1)C(F)(F)F (stereo not shown) [2-[4-(5-Fluoro-2-methoxyphenyl)-2-hydroxy-4-methyl-2-trifluoromethylpentyl]-4-methyl-1H-indole-6-carbonitrile] | potent agonists |
| potent activity | COc1ccc(Br)cc1C(C)(C)CC(O)(Cc1cc2ccccc2[nH]1)C(F)(F)F (stereo not shown) [4-(5-Bromo-2-methoxyphenyl)-1,1,1-trifluoro-2-(1H-indol-2-ylmethyl)-4-methylpentan-2-ol] | potent agonists |
| potent activity | Cc1ccc(F)cc1C(C)(C)CC(O)(Cc1cc2c(C)cc(C#N)cc2[nH]1)C(F)(F)F (stereo not shown) [2-[4-(5-Fluoro-2-methylphenyl)-2-hydroxy-4-methyl-2-trifluoromethylpentyl]-4-methyl-1H-indole-6-carbonitrile] | potent agonists |
| potent activity | COc1ccc(Br)cc1C(C)(C)CC(O)(Cc1ccnc2ccccc12)C(F)(F)F (stereo not shown) [4-(5-Bromo-2-methoxyphenyl)-1,1,1-trifluoro-4-methyl-2-quinolin-4-ylmethylpentan-2-ol] | potent agonists |

Second part, the compound before the results:

| SMILES | activity in the GR binding assay [1] | activity as agonists of the glucocorticoid receptor function in one or more of the above assays [2] |
| --- | --- | --- |
| CC(C)(CC(O)(Cc1ccnc2cccc(F)c12)C(F)(F)F)c1ccc(F)cc1 (stereo not shown) [1,1,1-Trifluoro-4-(4-fluorophenyl)-2-(5-fluoroquinolin-4-ylmethyl)-4-methylpentan-2-ol] | potent activity | potent agonists |
| Cc1cccc(C(C)(C)CC(O)(Cc2cc3ccccc3[nH]2)C(F)(F)F)c1 (stereo not shown) [1,1,1-Trifluoro-2-(1H-indol-2-ylmethyl)-4-methyl-4-m-tolylpentan-2-ol] | potent activity | potent agonists |
| COc1cc(F)ccc1C(C)(C)CC(O)(Cc1cc2ccncc2[nH]1)C(F)(F)F (stereo not shown) [1,1,1-Trifluoro-4-(4-fluoro-2-methoxyphenyl)-4-methyl-2-(1H-pyrrolo[2,3-c]pyridin-2-ylmethyl)pentan-2-ol] | potent activity | potent agonists |
| CC(C)(CC(O)(Cc1ccnc2ccccc12)C(F)(F)F)c1cc(F)cc2c1OCC2 (stereo not shown) [1,1,1-Trifluoro-4-(5-fluoro-2,3-dihydrobenzofuran-7-yl)-4-methyl-2-quinolin-4-ylmethylpentan-2-ol] | potent activity | potent agonists |
| COc1ccc(F)cc1C(C)(C)CC(O)(Cc1cc2ccccc2[nH]1)C(F)(F)F (stereo not shown) [1,1,1-Trifluoro-4-(5-fluoro-2-methoxyphenyl)-2-(1H-indol-2-ylmethyl)-4-methylpentan-2-ol] | potent activity | potent agonists |
| COc1cc(F)ccc1C(C)(C)CC(O)(Cc1ccnc2c1CCCC2)C(F)(F)F (stereo not shown) [1,1,1-Trifluoro-4-(4-fluoro-2-methoxyphenyl)-4-methyl-2-(5,6,7,8-tetrahydroquinolin-4-ylmethyl)pentan-2-ol] | potent activity | potent agonists |
| CC(C)(CC(O)(Cc1ccnc2ccccc12)C(F)(F)F)c1ccccc1 (stereo not shown) [1,1,1-Trifluoro-4-methyl-4-phenyl-2-quinolin-4-ylmethylpentan-2-ol] | potent activity | potent agonists |
| CC(C)(CC(O)(Cc1cc2ccccc2[nH]1)C(F)(F)F)c1cc(F)cc2c1OCC2 (stereo not shown) [1,1,1-Trifluoro-4-(5-fluoro-2,3-dihydrobenzofuran-7-yl)-2-(1H-indol-2-ylmethyl)-4-methylpentan-2-ol] | potent activity | potent agonists |
